The values that follow come from patent US20260378560A1, “APPROACHES TO DESIGNING AND PERFORMING COMPRESSED BIOLOGICAL EXPERIMENTS AND SYSTEMS FOR IMPLEMENTING THE SAME” (EXVIVO LABS INC., priority 2023, published 2026).

Structures are written as SMILES.

The first experiment deals with REH. Description: Cell viability (CellTiter Glo), compressed perturbation pools with informed pool design, MAX-based deconvolution, REH.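 As to DRS from MAX-based deconvolution: higher DRS means a larger drug effect.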 The settings on record: REH, None (measured individually), informed pool design table. The procedure, abridged: (§1)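 Per-drug DRS recovered by MAX deconvolution, which assumes the strongest pool member masks the rest; after ranking, each drug in turn takes the DRS of the lowest-signal pool containing it, and leftovers score zero. Pools built from drug class and known toxic combinations; dose-response spans 1 nM to 10 μM, read by ATP-based luminescence.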
In general terms: In ATP-based viability assays light output follows the ATP content of the culture.
Consider `COc1cc2ncnc(Nc3ccc(F)c(Cl)c3)c2cc1NC(=O)/C=C/CN1CCCCC1` [Dacomitinib], for which the DRS amounted to 0.00.
The same measure, in the same setting: the same measure for `Cc1nc(NC(=O)N2CCC[C@H]2C(N)=O)sc1-c1ccnc(C(C)(C)C(F)(F)F)c1` [Alpelisib]: 0.21.
For `CNC(=O)c1ccc(N2C(=S)N(c3cnc(C#N)c(C(F)(F)F)c3)C(=O)C23CCC3)cc1F` [Apalutamide], the DRS was 0.00.

Still in this experiment, the particulars now being: REH, Samples, 7 Pick 3 informed perturbation pools.
In the case of `COc1cc2ncnc(Nc3ccc(F)c(Cl)c3)c2cc1NC(=O)/C=C/CN1CCCCC1` [Dacomitinib], the “DRS from MAX-based deconvolution” value was 0.00.
The same measure, in the same setting: in the case of `Cc1nc(NC(=O)N2CCC[C@H]2C(N)=O)sc1-c1ccnc(C(C)(C)C(F)(F)F)c1` [Alpelisib] it was 0.35.
Same read-out and setting: in the case of `CNC(=O)c1ccc(N2C(=S)N(c3cnc(C#N)c(C(F)(F)F)c3)C(=O)C23CCC3)cc1F` [Apalutamide] it was 0.00.

Still in this experiment, the particulars now being: REH; compressed perturbation pools, informed pool design; MAX-based deconvolution.
For `COc1cc2ncnc(Nc3ccc(F)c(Cl)c3)c2cc1NC(=O)/C=C/CN1CCCCC1` [Dacomitinib], the “DRS, REH, MAX” value was 0.00.
For the compound `Cc1nc(NC(=O)N2CCC[C@H]2C(N)=O)sc1-c1ccnc(C(C)(C)C(F)(F)F)c1` [Alpelisib], the “DRS, REH, MAX” value is 3.57.
For the compound `CNC(=O)c1ccc(N2C(=S)N(c3cnc(C#N)c(C(F)(F)F)c3)C(=O)C23CCC3)cc1F` [Apalutamide], the “DRS, REH, MAX” value is listed as 0.73.

The subject of another experiment is MOLT-4. Description: Cell viability (CellTiter Glo), compressed perturbation pools with informed pool design, MAX-based deconvolution, MOLT-4.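 As to DRS from MAX-based deconvolution: higher DRS means a larger drug effect.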 To be noted: MOLT-4, None (measured individually), informed pool design table. The procedure, abridged: as §1
As to `COc1cc2ncnc(Nc3ccc(F)c(Cl)c3)c2cc1NC(=O)/C=C/CN1CCCCC1` [Dacomitinib], the DRS is reported as 0.00.
As for `Cc1nc(NC(=O)N2CCC[C@H]2C(N)=O)sc1-c1ccnc(C(C)(C)C(F)(F)F)c1` [Alpelisib], the DRS was found to be 0.01.
For the compound `CNC(=O)c1ccc(N2C(=S)N(c3cnc(C#N)c(C(F)(F)F)c3)C(=O)C23CCC3)cc1F` [Apalutamide], the DRS was determined as 0.00.

The same experiment, now with this note: MOLT-4, Samples, 7 Pick 3 informed perturbation pools.
With `COc1cc2ncnc(Nc3ccc(F)c(Cl)c3)c2cc1NC(=O)/C=C/CN1CCCCC1` [Dacomitinib], the “DRS from MAX-based deconvolution” value is on record as 0.00.
The same measure, in the same setting: the same measure for `Cc1nc(NC(=O)N2CCC[C@H]2C(N)=O)sc1-c1ccnc(C(C)(C)C(F)(F)F)c1` [Alpelisib]: 0.00.
Still for that read-out and setting: the same measure for `CNC(=O)c1ccc(N2C(=S)N(c3cnc(C#N)c(C(F)(F)F)c3)C(=O)C23CCC3)cc1F` [Apalutamide]: 0.00.

Still in this experiment, the particulars now being: MOLT-4; compressed perturbation pools, informed pool design; MAX-based deconvolution.
`COc1cc2ncnc(Nc3ccc(F)c(Cl)c3)c2cc1NC(=O)/C=C/CN1CCCCC1` [Dacomitinib]: the “DRS, MOLT-4, MAX” value worked out at 0.00.
As to `Cc1nc(NC(=O)N2CCC[C@H]2C(N)=O)sc1-c1ccnc(C(C)(C)C(F)(F)F)c1` [Alpelisib], the “DRS, MOLT-4, MAX” value came to 0.00.
Still for that read-out and setting: in the case of `CNC(=O)c1ccc(N2C(=S)N(c3cnc(C#N)c(C(F)(F)F)c3)C(=O)C23CCC3)cc1F` [Apalutamide] it was 4.94.

The subject of the next experiment is MOLT-4. Briefly: Cell viability (CellTiter Glo), compressed perturbation pools with informed pool design, SUM-based deconvolution, MOLT-4. More on the design: scale not given here.
Settings: not given
The procedure: (§2) Total cell viability was measured for each sample using an ATP-based luminescence assay (i.e., CellTiter Glo). Each cancer drug was then screened at multiple concentrations ranging from one nM to ten μM in order to generate a dose-response curve and calculate a DRS for each cancer cell line.
(§3) Each cancer drug was cultured with target cells individually. At the end of the screen, samples were either analyzed individually or compressed into pools for analysis. The library was compressed alphabetically into ten cohorts, each of which contained seven cancer drugs present in three out of the seven pools, as shown in Table VII. Said another way, the screening platform 210 generated a “7 pick 3” compressed library by assigning the cancer drugs among different pools. […] The library was also compressed into ten cohorts with pools designed based on information known about each cancer drug, as shown in Table VIII. After cell viability measurement and DRS calculation, the DRS of each cancer drug in the samples generated based on the pools were deconvoluted and compared to the DRS for each cancer drug measured individually.
(§4) In parallel to the exemplary sample compression screen covered in Table VII, perturbations were compressed into pools and then screened. The pools were designed using drug class as a feature with two compression rules (or simply “rules”). The first rule required that drugs from the same class be separated into different cohorts (i.e., mutually exclusive groups of pools). The second rule separated PI3K pathway inhibitors from MAPK pathway inhibitors, as inhibiting these pathways in parallel is known to be synergistic but has not been clinically effective due to dose-limiting toxicities. A benefit of compressing perturbations is the ability to measure additive, antagonistic, and synergistic effects between drugs in the same pool. However, these effects can negatively impact deconvolution of individual drug effects. Therefore, combinations of drugs for which evidence of clinical toxicity exists can be assigned to different pools in accordance with an informed pooling operation. As new preclinical or clinical evidence of toxic combinations becomes available, the rules implemented by the screening platform 210—and more specifically, its algorithm for compressing members of a library—can be updated accordingly.
(§5) In SUM-based deconvolution, an assumption of additivity is used to quantify the individual effects of each perturbation on each target. Additivity implies that each perturbation effect on each target is positively contributing to the overall effect measured for that pool. This is an accurate assumption for certain experiments, such as when targets or samples are compressed. When targets are pooled—or when samples containing different targets are pooled—the effect of each perturbation on each individual target is diluted. In other words, each perturbation has an isolated effect on a target in culture, and the sum total of the isolated effects are measured when pooled. Therefore, SUM-based deconvolution breaks down the sum total measured for a pool and assigns estimated fractional effects to each compressed perturbation or target in the pool. The screening platform 210 used SUM-based deconvolution for all target and sample compression experiments described above.
(§6) As mentioned above, SUM-based deconvolution uses the overlapping pool design to identify relative relationships and ranges for the individual effects of each perturbation. When the overlapping pool design is not sufficient to solve for the polynomials representing perturbation effects, an anchor perturbation can be identified by the screening platform 210 based on rank order and assigned an effect size of zero. The anchor perturbation may be the lowest ranked perturbation in the rank order. This then enables the screening platform 210 to solve for the polynomials for the remaining perturbations.
As to `COc1cc2ncnc(Nc3ccc(F)c(Cl)c3)c2cc1NC(=O)/C=C/CN1CCCCC1` [Dacomitinib], the “DRS, MOLT-4, SUM” value came out at 0.99.
With `Cc1nc(NC(=O)N2CCC[C@H]2C(N)=O)sc1-c1ccnc(C(C)(C)C(F)(F)F)c1` [Alpelisib], the “DRS, MOLT-4, SUM” value came out at 0.00.
For the compound `CNC(=O)c1ccc(N2C(=S)N(c3cnc(C#N)c(C(F)(F)F)c3)C(=O)C23CCC3)cc1F` [Apalutamide], the “DRS, MOLT-4, SUM” value is 1.88.

In the next experiment the test system is MOLT-4. Description: Cell viability (CellTiter Glo), library of cancer drugs, individual or sample compression with randomized (alphabetical) pools, MOLT-4. It is filed as cell-based. The settings on record: MOLT-4, None (measured individually). The procedure, abridged: (§7)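 Cells cultured with each drug individually at 1 nM–10 μM; viability by ATP luminescence (CellTiter Glo) to build dose-response curves and DRS. Samples read singly or pooled alphabetically (each drug in 3 of 7 pools), with pooled DRS recovered by additivity-based SUM deconvolution.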
In turn, `COc1cc2ncnc(Nc3ccc(F)c(Cl)c3)c2cc1NC(=O)/C=C/CN1CCCCC1` [Dacomitinib] had a DRS of 2.60.
On to `Cc1nc(NC(=O)N2CCC[C@H]2C(N)=O)sc1-c1ccnc(C(C)(C)C(F)(F)F)c1` [Alpelisib], for which the DRS was determined as 1.79.
Still for that read-out and setting: in the case of `CNC(=O)c1ccc(N2C(=S)N(c3cnc(C#N)c(C(F)(F)F)c3)C(=O)C23CCC3)cc1F` [Apalutamide] it was 0.38.

Staying with this experiment, now noted: MOLT-4, Samples, 7 Pick 3 randomized (alphabetical) sample pools.
Take `COc1cc2ncnc(Nc3ccc(F)c(Cl)c3)c2cc1NC(=O)/C=C/CN1CCCCC1` [Dacomitinib]: the DRS from deconvolution was 2.53.
Compound `Cc1nc(NC(=O)N2CCC[C@H]2C(N)=O)sc1-c1ccnc(C(C)(C)C(F)(F)F)c1` [Alpelisib] returned a DRS from deconvolution of 1.94.
Same read-out and setting: in the case of `CNC(=O)c1ccc(N2C(=S)N(c3cnc(C#N)c(C(F)(F)F)c3)C(=O)C23CCC3)cc1F` [Apalutamide] it was 0.33.

For the next experiment, the system named is REH. Briefly: Cell viability (CellTiter Glo), compressed perturbation pools with informed pool design, SUM-based deconvolution, REH. More on the design: scale not given here.
Settings: not given
The procedure: as §2, §3, §4, §5, §6
With `COc1cc2ncnc(Nc3ccc(F)c(Cl)c3)c2cc1NC(=O)/C=C/CN1CCCCC1` [Dacomitinib], the “DRS, REH, SUM” value stood at 1.33.
Still for that read-out and setting: in the case of `Cc1nc(NC(=O)N2CCC[C@H]2C(N)=O)sc1-c1ccnc(C(C)(C)C(F)(F)F)c1` [Alpelisib] it was 1.12.
As for `CNC(=O)c1ccc(N2C(=S)N(c3cnc(C#N)c(C(F)(F)F)c3)C(=O)C23CCC3)cc1F` [Apalutamide], the “DRS, REH, SUM” value was 0.73.

Another experiment concerns REH. Briefly: Cell viability (CellTiter Glo), library of cancer drugs, individual or sample compression with randomized (alphabetical) pools, REH. It is filed as cell-based. To be noted: REH, None (measured individually). The procedure, abridged: as §7
`COc1cc2ncnc(Nc3ccc(F)c(Cl)c3)c2cc1NC(=O)/C=C/CN1CCCCC1` [Dacomitinib] registered a DRS of 3.10.
Same read-out and setting: in the case of `Cc1nc(NC(=O)N2CCC[C@H]2C(N)=O)sc1-c1ccnc(C(C)(C)C(F)(F)F)c1` [Alpelisib] it was 0.79; in that of `CNC(=O)c1ccc(N2C(=S)N(c3cnc(C#N)c(C(F)(F)F)c3)C(=O)C23CCC3)cc1F` [Apalutamide], 0.38.

The same experiment, now with this note: REH, Samples, 7 Pick 3 randomized (alphabetical) sample pools.
On to `COc1cc2ncnc(Nc3ccc(F)c(Cl)c3)c2cc1NC(=O)/C=C/CN1CCCCC1` [Dacomitinib], for which the DRS from deconvolution is on record as 3.15.
For `Cc1nc(NC(=O)N2CCC[C@H]2C(N)=O)sc1-c1ccnc(C(C)(C)C(F)(F)F)c1` [Alpelisib], the DRS from deconvolution is 0.75.
On to `CNC(=O)c1ccc(N2C(=S)N(c3cnc(C#N)c(C(F)(F)F)c3)C(=O)C23CCC3)cc1F` [Apalutamide], for which the DRS from deconvolution stood at 0.35.
